Measurements published in patent US6107549A, “Genetically engineered plant resistance to thiazopyr and other pyridine herbicides” (Monsanto Company, priority 1999, dated 2000).

How the values were obtained:
tobacco calli = experiment: Herbicide toxicity to tobacco calli on selection media; assay type: cell-based; details: for callus survival: control calli, concentrations above 1 μM, after 3 weeks; for suitable selection concentration for RLE3-expressing transgenic tobacco calli: preliminary experiments
Description: The experimental procedure compared the herbicide toxicity of the pyridines upon exposure to tobacco calli that were transformed with a plasmid DNA, pMON13765 (FIG. 8) containing the RLE3 gene, and tobacco calli controls transformed with isogenic plasmid DNA without the RLE3 gene. The vectors, which also encoded NPTII for kanamycin selection, were introduced via Agrobacterium transformation. Kanamycin resistant calli were cut into pieces of 3-5 mm diameter and transferred onto selection media (Murahige and Skoog basal salt mixture in 0.9% agar) containing 0.01, 0.1, 1.0, or 10.0 μM concentration of either thiazopyr or MON 14300 (1 mM stock solution in DMSO). Plates were placed in a lighted growth chamber maintained at 22° C. […] Most control calli were dead after 3 weeks at pyridine herbicide concentrations above 1 μM. […] Preliminary experiments identified 0.1 μM 14300 or thiazopyr as a suitable selection concentration for identifying transgenic tobacco calli that are expressing the RLE3 esterase. It is believed that any member of the pyridine herbicide family that is deactivated by an esterase, and any esterase gene that can hydrolyze the methylester group of a pyridine herbicide would be able to function in this selection system.

pyridine-esterase [1] = molecular target: T1, pyridine-esterase (Oryctolagus cuniculus, UniProt P12337, A196R/H30K); assay type: biochemical, rabbit; details: for hydrolysis by pyridine-esterase (substrate specificity): tobacco line #37437 extract, FIG. 4
T1 construct: made in house; host or cells: transgenic tobacco (Samson) and tomato (UC82B) plants, tissue extracts
T1 sequence (P12337 19-565 H30K/A196R): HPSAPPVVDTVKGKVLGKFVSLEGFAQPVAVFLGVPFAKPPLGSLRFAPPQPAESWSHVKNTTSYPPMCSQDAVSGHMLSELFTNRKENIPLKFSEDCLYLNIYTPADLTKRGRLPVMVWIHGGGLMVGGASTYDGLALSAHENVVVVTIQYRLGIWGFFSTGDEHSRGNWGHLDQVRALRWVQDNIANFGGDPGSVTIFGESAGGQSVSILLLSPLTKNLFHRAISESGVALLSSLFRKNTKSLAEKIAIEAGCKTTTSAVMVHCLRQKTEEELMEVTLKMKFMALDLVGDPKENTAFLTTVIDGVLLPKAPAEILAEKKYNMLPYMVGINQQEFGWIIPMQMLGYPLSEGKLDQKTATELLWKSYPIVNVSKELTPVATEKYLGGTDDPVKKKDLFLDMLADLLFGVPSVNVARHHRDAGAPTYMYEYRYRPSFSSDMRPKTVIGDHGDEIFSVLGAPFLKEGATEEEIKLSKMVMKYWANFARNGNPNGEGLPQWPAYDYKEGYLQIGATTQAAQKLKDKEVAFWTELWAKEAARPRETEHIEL
Protocol: (§1) Esterase activity assays. Esterase activity was measured in vitro by conversion of either [^14 C]thiazopyr or [^14 C]MON 14300 to their corresponding monoacid. Pyridine-esterase activity was assayed during protein purification and from tissue extracts of transgenic plants. The homogenizing buffer for plant tissues consisted of 100 mM Tris pH 8.0, 1 mM EDTA, 1 mM DTT, and 10% glycerol in water. Plant tissues (1 g/ml buffer) including leaves, seeds, flowers, seedlings, etc. were homogenized in conical centrifuge tubes using a spinning pestle at 4° C. Following centrifugation (12,000× g), the supernatant (250 μl) was assayed immediately for esterase activity by incubation with [^14 C]thiazopyr or [^14 C]MON 14300 (4 μg) in 0.1 M Tris pH 8.0 buffer (50 μl) at 37° C. The reaction was sampled (100 μL) at various times (0.5 to 100 hr) to generate a kinetic profile of monoacid formation. The reaction was stopped by addition of 1% trifluoroacetic acid in acetonitrile (v/v, 150 μl). Following centrifugation (12,000× g for 3 min), the supernatant was analyzed by HPLC/RAD (radioactivity detection) to resolve the monoacid from the parent herbicide and other metabolites. Control reactions in the absence of the esterase recovered un-reacted thiazopyr or MON 14300 for the duration of experiments. Esterase activity was also assayed during protein purification following a similar procedure except a single time-point (1-2 hrs) of incubation was selected within the linear range of reaction. In vitro assays also employed three commonly used calorimetric (p-nitrophenyl butyrate) or fluorescent (4-methyl umbelliferyl butyrate and 5-bromo-4-chloro-3-indolylacetate) substrates. These substrates are useful in rapidly and qualitatively detecting general esterase activity.
Tissue extracts from 3 tobacco R1 seedlings were employed for further studies. Two of the lines (#37437 and #37432) expressed high levels of esterase (~0.5%) and one line (#37436) which expressed no pyridine-esterase was used as negative control. Tissue extracts were incubated with [^14 C]MON 14300 and formation of the monoacid monitored with time. […] In comparison, less that 2% monoacid was detected in line (#37436). […] First, pyridine-esterase was capable of driving the hydrolysis reaction to completion with no apparent product inhibition, and second, there was no endogenous esterase activity in tobacco which catalyzed MON 14300 hydrolysis.

pyridine-esterase [2] = molecular target: T1, pyridine-esterase; experiment: Esterase activity in leaf extracts from R0 tomato and tobacco plants; assay type: biochemical, rabbit; details: R0 tomato and tobacco plants expressing the 60 kD esterase
Protocol: as §1, with “Esterase activity was also assayed during protein purification following a similar procedure except a single time-point (1-2 hrs) of incubation was selected within the linear range of reaction. In vitro assays also employed three commonly used calorimetric (p-nitrophenyl butyrate) or fluorescent (4-methyl umbelliferyl butyrate and 5-bromo-4-chloro-3-indolylacetate) substrates. These substrates are useful in rapidly and qualitatively detecting general esterase activity.” left out

[3] = control vector calli, concentrations above 0.1 μM, after 2-3 weeks

COC(=O)c1c(C(F)F)nc(C(F)(F)F)c(C(=O)n2cccn2)c1CC(C)C [MON 14300] was tested, and the callus growth (tobacco calli; RLE3 calli, 1.0 to 10 μM) was “stunting with reduced shoot development”, the callus growth (tobacco calli; calli expressing RLE3, 0.1 μM) was “vigorous growth and shoot development” and the callus survival (tobacco calli) was “dead”. The callus growth (tobacco calli; [3]) was “little growth”, the “suitable selection concentration for RLE3-expressing transgenic tobacco calli” value (tobacco calli) was 0.1 µM and the “hydrolysis to monoacid metabolite” value (pyridine-esterase [1]; expressing lines #37432 and #37437, FIG. 3) was “efficient hydrolysis”. For the same compound, the “hydrolysis by pyridine-esterase (substrate specificity)” value (pyridine-esterase [1]) was “clearly hydrolyzed”, the monoacid formed (pyridine-esterase [1]; tobacco, seedling tissue extract, 100 h) was 90% and the “hydrolysis by leaf extracts” value (pyridine-esterase [2]) was “did demonstrate the hydrolysis”.

With COC(=O)c1c(C(F)F)nc(C(F)(F)F)c(C2=NCCS2)c1CC(C)C [thiazopyr] the callus growth (tobacco calli; RLE3 calli, 1.0 to 10 μM) was “stunting with reduced shoot development”, the callus growth (tobacco calli; calli expressing RLE3, 0.1 μM) was “vigorous growth and shoot development” and the callus survival (tobacco calli) was “dead”. The callus growth (tobacco calli; [3]) was “little growth”, the “suitable selection concentration for RLE3-expressing transgenic tobacco calli” value (tobacco calli) was 0.1 µM and the “hydrolysis by pyridine-esterase (substrate specificity)” value (pyridine-esterase [1]) was “clearly hydrolyzed”. For the same compound, the “hydrolysis by leaf extracts” value (pyridine-esterase [2]) was “did demonstrate the hydrolysis”.
